# Where two headings read alike, the source gives them in different places.
# Tests used:
# IRAK4 [1] = molecular target: T1, IRAK4 (Homo sapiens (Human), UniProt Q9NWZ3); assay: IRAK4 Degradation HiBiT Assay; conditions: HiBiT-tagged Jurkat cells, 4 hrs; for Dmax: Jurkat; for DC50: read-out: Cellular IRAK4 HiBiT: DC50
# Target sequence in this assay (Q9NWZ3 whole entry): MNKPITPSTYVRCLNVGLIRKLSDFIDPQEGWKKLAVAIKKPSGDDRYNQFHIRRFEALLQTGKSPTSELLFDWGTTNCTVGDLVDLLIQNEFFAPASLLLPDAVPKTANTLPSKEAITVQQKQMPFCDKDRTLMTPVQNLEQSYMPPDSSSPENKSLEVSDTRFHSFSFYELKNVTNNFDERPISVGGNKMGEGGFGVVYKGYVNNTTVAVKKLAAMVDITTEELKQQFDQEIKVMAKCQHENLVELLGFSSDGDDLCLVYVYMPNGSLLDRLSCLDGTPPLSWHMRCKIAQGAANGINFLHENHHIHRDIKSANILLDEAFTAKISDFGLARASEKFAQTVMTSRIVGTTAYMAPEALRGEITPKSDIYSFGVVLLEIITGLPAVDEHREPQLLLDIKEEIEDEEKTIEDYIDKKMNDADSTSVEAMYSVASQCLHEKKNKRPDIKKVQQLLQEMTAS
# IRAK4 [2] = molecular target: T1, IRAK4; assay: IRAK4 Biochemical HTRF Kinase Assay; conditions: read-out: IRAK4 HTRF biochemical: IC50
# Method in brief: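 HTRF KinEASE STK S1 format measuring IRAK4 phosphorylation of biotinylated peptide; reaction solution of 5 μM STK-S1, 10 mM ATP, 10 mM MgCl2 added (stock, to 10 μl final), 90 min at ambient temperature, detection 60 min. IC50 from sixteen-point duplicate curves by non-linear regression.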
# Target sequence in this assay (Q9NWZ3 whole entry, species assumed): as the sequence (Q9NWZ3 whole entry) above
# [3] = read-out: Cellular IRAK4 HiBiT: Dmax, Table 4
# [4] = read-out: Cellular IRAK4 HiBiT: Dmax, Table 5, multiple runs
Dmax (IRAK4 [1]; [3]),Dmax (IRAK4 [1]; [4]),DC50 (IRAK4 [1]; Table 4),"DC50 (IRAK4 [1]; Table 5, multiple runs)",IC50 (IRAK4 [2]; Table 4),"IC50 (IRAK4 [2]; Table 5, multiple runs)",SMILES
104%,104%,336 nM,315 nM,17.3 nM,17.3 nM,"Cc1ncsc1-c1ccc(CNC(=O)[C@@H]2C[C@@H](O)CN2C(=O)[C@@H](NC(=O)C2(F)CC2)C(C)(C)C)c(OCCCCCC(=O)N2CCN(c3nnc(-c4cnc(-c5ccc6cc(C#N)cnn56)cc4NC(C)C)s3)CC2)c1 [Example 42, (2S,4R)—N-(2-((6-(4-(5-(6-(3-cyanopyrrolo[1,2-b]pyridazin-7-yl)-4-(isopropylamino)pyridin-3-yl)-1,3,4-thiadiazol-2-yl)piperazin-1-yl)-6-oxohexyl)oxy)-4-(4-methylthiazol-5-yl)benzyl)-1-((S)-2-(1-fluorocyclopropane-1-carboxamido)-3,3-dimethylbutanoyl)-4-hydroxypyrrolidine-2-carboxamide]"
69%,77%,188 nM,160 nM,7.8 nM,7.8 nM,"CC(C)Nc1cc(-c2ccc3cc(C#N)cnn23)ncc1-c1nnc(N2CCC(NC(=O)C3CCN(c4ccc5c(c4)C(=O)N(C4CCC(=O)NC4=O)C5=O)CC3)CC2)s1 (centres unmarked) [Example 25, N-(1-(5-(6-(3-cyanopyrrolo[1,2-b]pyridazin-7-yl)-4-(isopropylamino)pyridin-3-yl)-1,3,4-thiadiazol-2-yl)piperidin-4-yl)-1-(2-(2,6-dioxopiperidin-3-yl)-1,3-dioxoisoindolin-5-yl)piperidine-4-carboxamide]"
,68%,,544 nM,,2.8 nM,"CNc1cc(-c2ccc3cc(C#N)cnn23)ncc1-c1nnc([C@H]2CC[C@H](NC(=O)CC(C)(C)C(=O)N[C@H](C(=O)N3C[C@H](O)C[C@H]3C(=O)N[C@@H](C)c3ccc(-c4scnc4C)cc3)C(C)(C)C)CC2)s1 [Example 154, N4-((1r,4S)-4-(5-(6-(3-cyanopyrrolo[1,2-b]pyridazin-7-yl)-4-(methylamino)pyridin-3-yl)-1,3,4-thiadiazol-2-yl)cyclohexyl)-N1—((S)-1-((2S,4R)-4-hydroxy-2-(((S)-1-(4-(4-methylthiazol-5-yl)phenyl)ethyl)carbamoyl)pyrrolidin-1-yl)-3,3-dimethyl-1-oxobutan-2-yl)-2,2-dimethylsuccinamide]"
96%,99%,232 nM,231 nM,0.8 nM,0.8 nM,"CC(C)Nc1cc(-c2ccc3cc(C#N)cnn23)ncc1-c1nnc(N2CCC(NCC3CCN(c4ccc5c(c4)C(=O)N(C4CCC(=O)NC4=O)C5=O)CC3)CC2)s1 (centres unmarked) [Example 22, 7-[5-(5-{4-[({1-[2-(2,6-dioxopiperidin-3-yl)-1,3-dioxo-2,3-dihydro-1H-isoindol-5-yl]piperidin-4-yl}methyl)amino]piperidin-1-yl}-1,3,4-thiadiazol-2-yl)-4-[(propan-2-yl)amino]pyridin-2-yl]pyrrolo[1,2-b]pyridazine-3-carbonitrile]"
95%,95%,73.4 nM,73.5 nM,0.9 nM,1.1 nM,"CC(C)Nc1cc(-c2ccc3cc(C#N)cnn23)ncc1-c1nnc(N2CCC(NC(=O)C3CCN(Cc4ccc5c(c4)C(=O)N(C4CCC(=O)NC4=O)C5=O)CC3)CC2)s1 (centres unmarked) [Example 30, N-(1-(5-(6-(3-cyanopyrrolo[1,2-b]pyridazin-7-yl)-4-(isopropylamino)pyridin-3-yl)-1,3,4-thiadiazol-2-yl)piperidin-4-yl)-1-((2-(2,6-dioxopiperidin-3-yl)-1,3-dioxoisoindolin-5-yl)methyl)piperidine-4-carboxamide]"
,113%,,441 nM,,5.5 nM,"CNc1cc(-c2ccc3cc(C#N)cnn23)ncc1-c1nnc(N2CCCC3(CN(C(=O)C[C@H](NC(=O)[C@@H]4C[C@@H](O)CN4C(=O)[C@@H](NC(=O)C4(F)CC4)C(C)(C)C)c4ccc(-c5scnc5C)cc4)C3)C2)s1 [Example 150, (2S,4R)—N—((S)-3-(6-(5-(6-(3-cyanopyrrolo[1,2-b]pyridazin-7-yl)-4-(methylamino)pyridin-3-yl)-1,3,4-thiadiazol-2-yl)-2,6-diazaspiro[3.5]nonan-2-yl)-1-(4-(4-methylthiazol-5-yl)phenyl)-3-oxopropyl)-1-((S)-2-(1-fluorocyclopropane-1-carboxamido)-3,3-dimethylbutanoyl)-4-hydroxypyrrolidine-2-carboxamide]"
,,,> 9980 nM,,0.8 nM,"CNc1cc(-c2ccc3cc(C#N)cnn23)ncc1-c1nnc(N2CCC(NC(=O)C3CCN(c4cccc5c4C(=O)N(C4CCC(=O)NC4=O)C5=O)CC3)CC2)s1 (centres unmarked) [Example 90, N-(1-(5-(6-(3-cyanopyrrolo[1,2-b]pyridazin-7-yl)-4-(methylamino)pyridin-3-yl)-1,3,4-thiadiazol-2-yl)piperidin-4-yl)-1-(2-(2,6-dioxopiperidin-3-yl)-1,3-dioxoisoindolin-4-yl)piperidine-4-carboxamide]"
53%,86%,10.4 nM,45.7 nM,1.61 nM,1.8 nM,"CNc1cc(-c2ccc3cc(C#N)cnn23)ncc1-c1nnc([C@H]2CC[C@H](NC(=O)CCCCCCCNc3ccc4c(c3)C(=O)N(C3CCC(=O)NC3=O)C4=O)CC2)s1 (some centres unmarked) [Example 67, N-((1r,4r)-4-(5-(6-(3-cyanopyrrolo[1,2-b]pyridazin-7-yl)-4-(methylamino)pyridin-3-yl)-1,3,4-thiadiazol-2-yl)cyclohexyl)-8-((2-(2,6-dioxopiperidin-3-yl)-1,3-dioxoisoindolin-5-yl)amino)octanamide]"

SMILES,Dmax (IRAK4 [1]; [3]),Dmax (IRAK4 [1]; [4]),DC50 (IRAK4 [1]; Table 4),"DC50 (IRAK4 [1]; Table 5, multiple runs)",IC50 (IRAK4 [2]; Table 4),"IC50 (IRAK4 [2]; Table 5, multiple runs)"
"CNc1cc(-c2ccc3cc(C#N)cnn23)ncc1-c1nnc([C@H]2CC[C@H](NC(=O)CCCOc3cc(-c4scnc4C)ccc3CNC(=O)[C@@H]3C[C@@H](O)CN3C(=O)[C@@H](NC(=O)C3(F)CC3)C(C)(C)C)CC2)s1 [Example 119, (2S,4R)—N-(2-(4-(((1r,4S)-4-(5-(6-(3-cyanopyrrolo[1,2-b]pyridazin-7-yl)-4-(methylamino)pyridin-3-yl)-1,3,4-thiadiazol-2-yl)cyclohexyl)amino)-4-oxobutoxy)-4-(4-methylthiazol-5-yl)benzyl)-1-((S)-2-(1-fluorocyclopropane-1-carboxamido)-3,3-dimethylbutanoyl)-4-hydroxypyrrolidine-2-carboxamide]",,117%,,116 nM,,2.2 nM
"CNc1cc(-c2ccc3cc(C#N)cnn23)ncc1-c1nnc(N2CC3CCC(C2)N3C2CCN(C(=O)Cc3ccc4c(c3)CN(C3CCC(=O)NC3=O)C4=O)CC2)s1 (centres unmarked) [Example 164, 7-(5-(5-(8-(1-(2-(2-(2,6-dioxopiperidin-3-yl)-1-oxoisoindolin-5-yl)acetyl)piperidin-4-yl)-3,8-diazabicyclo[3.2.1]octan-3-yl)-1,3,4-thiadiazol-2-yl)-4-(methylamino)pyridin-2-yl)pyrrolo[1,2-b]pyridazine-3-carbonitrile]",,109%,,5.64 nM,,0.4 nM

# Source: patent publication US12528814B2, “Bifunctional degraders of interleukin-1 receptor-associated kinases and therapeutic use thereof” (NURIX THERAPEUTICS, INC., priority 2020, dated 2026)
